Data published in patent US20240082341A1, “PEPTIDE FOR USE IN THE TREATMENT OR PREVENTION OF COVID-19” (Instytut Biochemii I Biofizyki Polskiej Akademii Nauk, priority 2020, published 2024).
Ends that are not written are not given here.

Target: RBD domain of the S1 subunit of viral S glycoprotein (Severe acute respiratory syndrome coronavirus 2, UniProt P0DTC2)
Assay: Binding of the peptides to the RBD domain of viral S glycoprotein (microscale thermophoresis, MST)
Set-up: species or system SARS-CoV-2
Conditions: for binding strength compared with the native peptide (1d): RBD domain, comparison with peptide 1d

Question: Which Kd (peptide-RBD complex, 25° C., cell unit μM, read-out: KD (nM) Tmeasurement 25° C.) does the source give for MYGNYE [Peptide J3.4, MYGNYE] here?
Answer: > 10 µM

Question: For CSCC[C@H](N)C(=O)N[C@@H](Cc1ccc(O)cc1)C(=O)NCC(=O)N[C@@H](CC(N)=O)C(=O)N[C@@H](Cc1c[nH]cn1)C(=O)N[C@@H](CCC(=O)O)C(=O)O [Peptide J3.2, MYGNHE], which “binding strength compared with the native peptide (1d)” value is on record?
Answer: significantly higher

Question: How did the “binding strength compared with the native peptide (1d)” value turn out when NC(=O)C[C@H](NC(=O)CNC(=O)[C@H](Cc1ccc(O)cc1)NC(=O)[C@@H](N)CC(=O)O)C(=O)N[C@@H](Cc1c[nH]cn1)C(=O)N[C@@H](CCC(=O)O)C(=O)O [Peptide 2d, DYGNHE] was run?
Answer: significantly higher
